pEC50: −log10 of the molar value.
Key:
[1] = Lipophilicity, log D of the compound at pH 7.4; format: physicochemical; conditions: buffer
Hepatitis C virus [2] = assay: Antiviral activity against Hepatitis C virus genotype 1b infected in human Huh cells assessed as inhibition of viral replication by RT-PCR-based replicon assay; format: functional, cell-based, Hepacivirus hominis
Hepatitis C virus [3] = assay: Antiviral activity against Hepatitis C virus genotype 1a infected in human Huh cells assessed as inhibition of viral replication by RT-PCR-based replicon assay; format: functional, cell-based, Hepacivirus hominis; conditions: subtype 1a

| Structure (SMILES) | logD [1] | pEC50 (Hepatitis C virus [2]) | pEC50 (Hepatitis C virus [3]) |
| --- | --- | --- | --- |
| COc1nc(NC(=O)C2(NC(=O)c3ccc4c(c3)c(C)c(-c3ccc(F)cn3)n4C3CCCCC3)CCC2)ccc1/C=C/C(=O)O | 4.2 | 8.00 | 7.28 |
| COc1nc(NC(=O)C(C)(C)NC(=O)c2ccc3c(C4CCCC4)c(-c4ncc(Br)cn4)n(C)c3c2)ccc1/C=C/C(=O)O | 3.2 | 8.15 |  |
| COc1nc(NC(=O)C2(NC(=O)c3ccc4c(C5CCCC5)c(-c5ccc(Cl)cn5)n(C)c4c3)CCC2)ccc1/C=C/C(=O)O | 4.6 | 7.89 |  |
| COc1nc(NC(=O)C2(NC(=O)c3ccc4c(C5CCCC5)c(-c5ccc(F)cn5)n(C)c4c3)CCCC2)cnc1/C=C/C(=O)O |  | 7.52 |  |
| COc1nc(NC(=O)C(C)(C)NC(=O)c2ccc3c(C4CCCC4)c(-c4ncc(Cl)cn4)n(C)c3c2)ccc1/C=C/C(=O)O | 3.3 | 7.33 |  |
| CCOc1nc(NC(=O)C2(NC(=O)c3ccc4c(C5CCCC5)c(-c5cncnc5)n(C)c4c3)CCCC2)cnc1/C=C/C(=O)O | 2.8 | 7.74 |  |
| CCOc1nc(NC(=O)C2(NC(=O)c3ccc4c(C5CCCC5)c(-c5cnccn5)n(C)c4c3)CCCC2)ccc1/C=C/C(=O)O | 4.1 | 8.30 |  |
| COc1nc(NC(=O)C(C)(C)NC(=O)c2ccc3c(c2)c(C)c(-c2ccc(F)cn2)n3C2CCCCC2)cnc1/C=C/C(=O)O |  | 7.57 |  |
| CCOc1nc(NC(=O)C2(NC(=O)c3ccc4c(C5CCCC5)c(-c5cncnc5)n(C)c4c3)CCCC2)ccc1/C=C/C(=O)O | 3.6 | 8.30 |  |
| COc1nc(NC(=O)C2(NC(=O)c3ccc4c(C5CCCC5)c(-c5cncnc5)n(C)c4c3)CCC2)cnc1/C=C/C(=O)O |  | 6.73 |  |
| CCOc1nc(NC(=O)C(C)(C)NC(=O)c2ccc3c(C4CCCC4)c(-c4ncc(Br)cn4)n(C)c3c2)cnc1/C=C/C(=O)O | 3.4 | 7.85 | 7.17 |
| COc1nc(NC(=O)C(C)(C)NC(=O)c2ccc3c(C4CCCC4)c(-c4ccc(Cl)cn4)n(C)c3c2)ccc1/C=C/C(=O)O | 3.9 | 7.92 |  |
| COc1nc(NC(=O)C(C)(C)NC(=O)c2ccc3c(C4CCCC4)c(-c4ncc(Br)cn4)n(C)c3c2)cnc1/C=C/C(=O)O | 2.6 | 7.64 |  |
| CCOc1nc(NC(=O)C(C)(C)NC(=O)c2ccc3c(C4CCCC4)c(-c4ccc(Cl)cn4)n(C)c3c2)ccc1/C=C/C(=O)O | 4.4 | 8.30 | 8.05 |
| COc1nc(NC(=O)C(C)(C)NC(=O)c2ccc3c(C4CCCC4)c(-c4ccc(Cl)cn4)n(C)c3c2)cnc1/C=C/C(=O)O |  | 7.36 |  |
| COc1nc(NC(=O)C(C)(C)NC(=O)c2ccc3c(C4CCCC4)c(-c4ccc(F)cn4)n(C)c3c2)ccc1/C=C/C(=O)O | 3.3 | 7.92 | 7.17 |
| COc1nc(NC(=O)C2(NC(=O)c3ccc4c(C5CCCC5)c(-c5ccc(F)cn5)n(C)c4c3)CCC2)cnc1/C=C/C(=O)O |  | 7.43 |  |
| CCOc1nc(NC(=O)C(C)(C)NC(=O)c2ccc3c(C4CCCC4)c(-c4ncc(Br)cn4)n(C)c3c2)ccc1/C=C/C(=O)O | > 4.7 | 8.30 | 8.10 |
| COc1nc(NC(=O)C2(NC(=O)c3ccc4c(C5CCCC5)c(-c5ccc(Cl)cn5)n(C)c4c3)CCC2)cnc1/C=C/C(=O)O |  | 7.25 |  |
| CCOc1nc(NC(=O)C(C)(C)NC(=O)c2ccc3c(C4CCCC4)c(-c4ccc(F)cn4)n(C)c3c2)cnc1/C=C/C(=O)O |  | 7.74 |  |
| CCOc1nc(NC(=O)C2(NC(=O)c3ccc4c(C5CCCC5)c(-c5ncc(Br)cn5)n(C)c4c3)CCCC2)ccc1/C=C/C(=O)O | > 6.6 | 8.30 |  |

| Structure (SMILES) | logD [1] | pEC50 (Hepatitis C virus [2]) | pEC50 (Hepatitis C virus [3]) |
| --- | --- | --- | --- |
| COc1nc(NC(=O)C2(NC(=O)c3ccc4c(C5CCCC5)c(-c5cnccn5)n(C)c4c3)CCC2)ccc1/C=C/C(=O)O | 3.3 | 7.89 | 7.34 |
| COc1nc(NC(=O)C2(NC(=O)c3ccc4c(C5CCCC5)c(-c5ncc(Cl)cn5)n(C)c4c3)CCC2)cnc1/C=C/C(=O)O |  | 7.49 |  |
| CCOc1nc(NC(=O)C2(NC(=O)c3ccc4c(C5CCCC5)c(-c5ccccn5)n(C)c4c3)CCCC2)ccc1/C=C/C(=O)O |  | 8.40 |  |
| CCOc1nc(NC(=O)C(C)(C)NC(=O)c2ccc3c(C4CCCC4)c(-c4cncnc4)n(C)c3c2)cnc1/C=C/C(=O)O | 2.2 | 7.09 |  |
| COc1nc(NC(=O)C2(NC(=O)c3ccc4c(C5CCCC5)c(-c5cncnc5)n(C)c4c3)CCC2)ccc1/C=C/C(=O)O |  | 7.30 |  |
| COc1nc(NC(=O)C2(NC(=O)c3ccc4c(C5CCCC5)c(-c5ncc(Cl)cn5)n(C)c4c3)CCCC2)cnc1/C=C/C(=O)O |  | 7.54 |  |
| COc1nc(NC(=O)C2(NC(=O)c3ccc4c(C5CCCC5)c(-c5cncnc5)n(C)c4c3)CCCC2)cnc1/C=C/C(=O)O |  | 6.24 |  |
| COc1nc(NC(=O)C(C)(C)NC(=O)c2ccc3c(C4CCCC4)c(-c4cncnc4)n(C)c3c2)cnc1/C=C/C(=O)O |  | 6.48 |  |
| COc1nc(NC(=O)C(C)(C)NC(=O)c2ccc3c(C4CCCC4)c(-c4cnccn4)n(C)c3c2)cnc1/C=C/C(=O)O |  | 7.26 |  |
| CCOc1nc(NC(=O)C2(NC(=O)c3ccc4c(C5CCCC5)c(-c5cncnc5)n(C)c4c3)CCC2)cnc1/C=C/C(=O)O |  | 7.05 |  |
| COc1nc(NC(=O)C(C)(C)NC(=O)c2ccc3c(C4CCCC4)c(-c4ccc(F)cn4)n(C)c3c2)cnc1/C=C/C(=O)O |  | 7.59 |  |
| COc1nc(NC(=O)C(C)(C)NC(=O)c2ccc3c(c2)c(C)c(-c2ccc(F)cn2)n3C2CCCCC2)ccc1/C=C/C(=O)O |  | 8.52 |  |
| CCOc1nc(NC(=O)C(C)(C)NC(=O)c2ccc3c(C4CCCC4)c(-c4ccccn4)n(C)c3c2)ccc1/C=C/C(=O)O | 3.5 | 8.70 |  |
| CCOc1nc(NC(=O)C(C)(C)NC(=O)c2ccc3c(C4CCCC4)c(-c4cnccn4)n(C)c3c2)ccc1/C=C/C(=O)O | 2.9 | 8.15 |  |
| CCOc1nc(NC(=O)C2(NC(=O)c3ccc4c(c3)c(C)c(-c3ccc(F)cn3)n4C3CCCCC3)CCCC2)cnc1/C=C/C(=O)O | 4.2 | 8.22 |  |
| CCOc1nc(NC(=O)C2(NC(=O)c3ccc4c(C5CCCC5)c(-c5ccc(Cl)cn5)n(C)c4c3)CCC2)cnc1/C=C/C(=O)O |  | 7.28 |  |
| CCOc1nc(NC(=O)C2(NC(=O)c3ccc4c(C5CCCC5)c(-c5ccccn5)n(C)c4c3)CCCC2)cnc1/C=C/C(=O)O | 2.6 | 7.80 |  |
| COc1nc(NC(=O)C2(NC(=O)c3ccc4c(C5CCCC5)c(-c5ccccn5)n(C)c4c3)CCCC2)cnc1/C=C/C(=O)O |  | 7.51 |  |
| CCOc1nc(NC(=O)C2(NC(=O)c3ccc4c(C5CCCC5)c(-c5ccc(F)cn5)n(C)c4c3)CCCC2)cnc1/C=C/C(=O)O | 3.9 | 7.96 |  |
| COc1nc(NC(=O)C2(NC(=O)c3ccc4c(C5CCCC5)c(-c5cnccn5)n(C)c4c3)CCCC2)cnc1/C=C/C(=O)O |  | 6.41 |  |
| CCOc1nc(NC(=O)C2(NC(=O)c3ccc4c(C5CCCC5)c(-c5ncc(Br)cn5)n(C)c4c3)CCCC2)cnc1/C=C/C(=O)O | > 4.2 | 8.05 |  |

| Structure (SMILES) | logD [1] | pEC50 (Hepatitis C virus [2]) | pEC50 (Hepatitis C virus [3]) |
| --- | --- | --- | --- |
| CCOc1nc(NC(=O)C2(NC(=O)c3ccc4c(C5CCCC5)c(-c5ccc(F)cn5)n(C)c4c3)CCCC2)ccc1/C=C/C(=O)O | > 5.3 | 8.40 |  |
| CCOc1nc(NC(=O)C(C)(C)NC(=O)c2ccc3c(C4CCCC4)c(-c4cnccn4)n(C)c3c2)cnc1/C=C/C(=O)O | 2.4 | 7.44 |  |
| CCOc1nc(NC(=O)C2(NC(=O)c3ccc4c(C5CCCC5)c(-c5ccc(F)cn5)n(C)c4c3)CCC2)cnc1/C=C/C(=O)O |  | 7.70 | 7.05 |
| CCOc1nc(NC(=O)C2(NC(=O)c3ccc4c(C5CCCC5)c(-c5ccc(Cl)cn5)n(C)c4c3)CCCC2)ccc1/C=C/C(=O)O | > 5.5 | 8.40 |  |
| CCOc1nc(NC(=O)C2(NC(=O)c3ccc4c(C5CCCC5)c(-c5ccc(Cl)cn5)n(C)c4c3)CCCC2)cnc1/C=C/C(=O)O | > 4.4 | 7.89 |  |
| CCOc1nc(NC(=O)C2(NC(=O)c3ccc4c(C5CCCC5)c(-c5ncc(Br)cn5)n(C)c4c3)CCC2)cnc1/C=C/C(=O)O | 4.2 | 7.52 |  |
| COc1nc(NC(=O)C2(NC(=O)c3ccc4c(C5CCCC5)c(-c5cnccn5)n(C)c4c3)CCC2)cnc1/C=C/C(=O)O |  | 7.31 |  |
| COc1nc(NC(=O)C2(NC(=O)c3ccc4c(C5CCCC5)c(-c5ncc(Br)cn5)n(C)c4c3)CCC2)cnc1/C=C/C(=O)O |  | 6.94 |  |
| COc1nc(NC(=O)C2(NC(=O)c3ccc4c(C5CCCC5)c(-c5ncc(Br)cn5)n(C)c4c3)CCCC2)cnc1/C=C/C(=O)O |  | 7.42 |  |
| COc1nc(NC(=O)C(C)(C)NC(=O)c2ccc3c(C4CCCC4)c(-c4ccccn4)n(C)c3c2)cnc1/C=C/C(=O)O |  | 7.30 |  |
| CCOc1nc(NC(=O)C2(NC(=O)c3ccc4c(C5CCCC5)c(-c5ncc(Cl)cn5)n(C)c4c3)CCC2)cnc1/C=C/C(=O)O | 3.5 |  |  |
| CCOc1nc(NC(=O)C(C)(C)NC(=O)c2ccc3c(C4CCCC4)c(-c4ccccn4)n(C)c3c2)cnc1/C=C/C(=O)O | 2.2 | 7.36 |  |
| COc1nc(NC(=O)C2(NC(=O)c3ccc4c(C5CCCC5)c(-c5ncc(Br)cn5)n(C)c4c3)CCC2)ccc1/C=C/C(=O)O | 3.9 | 8.05 |  |
| CCOc1nc(NC(=O)C2(NC(=O)c3ccc4c(c3)c(C)c(-c3ccc(F)cn3)n4C3CCCCC3)CCCC2)ccc1/C=C/C(=O)O | > 6.2 | 8.30 |  |
| COc1nc(NC(=O)C(C)(C)NC(=O)c2ccc3c(C4CCCC4)c(-c4ccccn4)n(C)c3c2)ccc1/C=C/C(=O)O |  | 7.68 |  |
| COc1nc(NC(=O)C2(NC(=O)c3ccc4c(C5CCCC5)c(-c5ccccn5)n(C)c4c3)CCC2)cnc1/C=C/C(=O)O |  | 7.37 |  |
| CCOc1nc(NC(=O)C2(NC(=O)c3ccc4c(C5CCCC5)c(-c5cnccn5)n(C)c4c3)CCC2)cnc1/C=C/C(=O)O | 2.9 | 7.66 |  |
| COc1nc(NC(=O)C2(NC(=O)c3ccc4c(C5CCCC5)c(-c5ccc(Cl)cn5)n(C)c4c3)CCCC2)cnc1/C=C/C(=O)O |  | 7.40 |  |
| COc1nc(NC(=O)C(C)(C)NC(=O)c2ccc3c(C4CCCC4)c(-c4cnccn4)n(C)c3c2)ccc1/C=C/C(=O)O | 2.4 | 7.80 |  |
| CCOc1nc(NC(=O)C2(NC(=O)c3ccc4c(C5CCCC5)c(-c5ncc(Br)cn5)n(C)c4c3)CCC2)ccc1/C=C/C(=O)O |  | 7.92 | 7.62 |

Reference: ChEMBL document CHEMBL3407472, “Multi-parameter optimization of aza-follow-ups to BI 207524, a thumb pocket 1 HCV NS5B polymerase inhibitor. Part 2: Impact of lipophilicity on promiscuity and in vivo toxicity” (Bioorg Med Chem Lett, 2015)
